Data published in patent publication US20240408071A1, “NOVEL COMBINATION OF SEROTONIN RECEPTOR (5-HTR2B) ANTAGONIST AND AN IMMUNOMODULATOR AND CHEMOTHERAPEUTIC DRUGS FOR INHIBITION OF CANCER” (NATIONAL CENTRE FOR CELL SCIENCE, priority 2021, published 2024).

Experiments:
MC38 cells = test: Cell cycle analysis of MC38 cells by propidium iodide staining (flow cytometry); format: cell-based, mouse; conditions: 48-hour stimulation; BW-723C86 50 μM, SB-215505 50 μM per FIG. 6 legend
Protocol: FIG. 6 depicts that 5-HTR2B signalling in colon cancer affects cell proliferation and viability: Colon cancer MC38 cells were treated with serotonin (100 μM), 5-HTR2B agonist (BW-723C86; 50 μM), or 5-HTR2B antagonist (SB-215505; 50 μM) for 48 hours, and cell cycle analysis was performed by propidium iodide staining using flow cytometry. MC38 cells were also treated with a graded dose of 5-HTR2B agonist (BW-723C86) or serotonin. MTT assay was performed to measure cell viability. (A) After treatment with 5-HTR2B agonist BW-723C86, serotonin, or 5-HTR2B antagonist SB-215505, the relative cell cycle analysis is shown. (B) Relative cell viability data of MC38 cells following treatment of graded doses of 5-HTR2B agonist BW-723C86 or serotonin are shown. The data shown are representative of one of the three independent experiments. (C) MC38 tumor sections from the control tumor and 5-HTR2B antagonist treated tumor were stained for CD31 and the number of CD31^+ micro-blood vessels/mm^2 of tissue sections was counted and plotted to observe angiogenesis. Error bar represents ±standard error of the mean (SEM).
MC38 cells were seeded in 6 well plates at a density of 5×10^4 cells/well. Cells were allowed to accommodate in the environment for 24 hours. The treatment with 5-HTR2B agonist (BW-723C86), Serotonin, and 5-HTR2B antagonist (RS-127445) was performed at different time points. […]

MC38 tumor = test: Adoptive transfer of lymph node cells into NRG mice bearing MC38 and B16F10 tumors: MC38 flank; format: in vivo; conditions: donor mice treated 10 days; tumor-draining lymph node cells; MC38 flank (FIG. 11B)
Protocol: (§1) FIG. 11 depicts the effect of 5-HTR antagonists on the antigen-specific CTL response MC38 tumor model in mice: (A) Representative experimental plan of the adoptive transfer experiment where NRG mice. In brief, NRG mice were inoculated with MC38 on one flank and B16F10 cells on the other. These mice received total lymph node cells from naïve C57BL/6J mice or MC38 tumor-bearing control or RS-127445 treated mice. (B) Tumor volume data from the above-described experiment was measured and plotted (C) Immunocytochemistry data showing expression of H2-Kb-[…]^+ (red) on MC38 cells transfected with pCL-neo-OVA plasmid on the right side and MC38 cells without transfection. DAPI is used as a counterstain. (D-E) C7BL/6J mice were inoculated with an MC38-ova cell line and treated with RS-127445 or left untreated. After 10 days of such treatment, Total lymph node cells were harvested tagged with CFSE, and cultured in the presence of ovalbumin protein (50 μg/ml) for 5 days. After 5 days cells were checked for CFSE expression by flow cytometry to check proliferation. Here is the data (D) showing the CFSE in CD8^+ cells. The statistical data of the total percentage of CFSE^− CD8 T cells corresponding with the percentage of proliferated CD8 T cells were plotted. […]

B16F10 melanoma tumor = test: Adoptive transfer of lymph node cells into NRG mice bearing MC38 and B16F10 tumors: B16F10 flank; format: in vivo; conditions: same recipient mice, other flank (FIG. 11B)
Protocol: as §1

Structure (SMILES)	percentage of MC38 cells in the S phase of the cell cycle (MC38 cells)	MC38 tumor growth after transfer of antagonist primed total immune cells (MC38 tumor)	B16F10 tumor growth after transfer of antagonist primed total immune cells (B16F10 melanoma tumor)
CC(N)Cc1c[nH]c2ccc(OCc3cccs3)cc12 (stereo not drawn) [BW-723C86]	increased percentage of cells in the S phase	–	–
CC(C)c1cc(-c2ccc(F)c3ccccc23)nc(N)n1 [RS-127445]	–	able to control MC38 tumor growth	failed to control B16F10 tumor growth
